Laboratory results reported in patent publication US20230114728A1 (Venatorx Pharmaceuticals, Inc., priority 2019, published 2023).
≈ marks a conversion by molar mass, not a printed value.

What was measured:
Assay in all cases: Broth microdilution MIC in CAMHB
Format in all cases: cell-based
[1] = system: E. coli D22; settings: Escherichia coli; E. coli D22 (hyper-permeable); MHB; read-out: Minimum Inhibitory Concentration, E. coli D22
In short: (§1)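 Lowest compound concentration with no visible growth after 16-20 h at 37 °C defines MIC. Plates of 2-fold serial dilutions in cation-adjusted Mueller Hinton broth received 2-8×10^5 CFU/mL of exponentially grown cells, per CLSI methods; panel spans reference, hyper-permeable and efflux-pump-deleted strains.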

[2] = system: E. coli ATCC 25922; settings: Escherichia coli, ATCC25922; E. coli ATCC 25922; MHB; read-out: Minimum Inhibitory Concentration, E. coli 25922
In short: as §1

[3] = system: E. coli AG100A; settings: Escherichia coli, read-out: Minimum Inhibitory Concentration, E. coli AG100A
In short: as §1

[4] = system: P. aeruginosa ATCC 35151; settings: Pseudomonas aeruginosa, ATCC35151; MHB; hyper-permeable strain; read-out: Minimum Inhibitory Concentration, P. aeruginosa ATCC 35151
In short: as §1

[5] = system: E. coli AG100; settings: Escherichia coli; E. coli AG100 (wild-type parent); MHB; read-out: Minimum Inhibitory Concentration, E. coli AG100
In short: as §1

[6] = system: K. pneumoniae SI-117 producing VIM-1; settings: Klebsiella pneumoniae, read-out: Minimum Inhibitory Concentration, K. pneumoniae SI-117
In short: as §1

[7] = system: E. coli 901C; settings: Escherichia coli; E. coli 901C (hyper-permeable); MHB; read-out: Minimum Inhibitory Concentration, E. coli 901C
In short: as §1

[8] = system: P. aeruginosa (ΔmexAB-oprM); settings: Pseudomonas aeruginosa, read-out: Minimum Inhibitory Concentration, P. aeruginosa ΔmexAB-OprM
In short: as §1

[9] = system: K. pneumoniae 848844 producing SHV-11 and KPC-2; settings: Klebsiella pneumoniae, read-out: Minimum Inhibitory Concentration, K. pneumoniae 848844
In short: as §1

[10] = system: P. aeruginosa ATCC 27853; settings: Pseudomonas aeruginosa, ATCC27853; MHB; read-out: Minimum Inhibitory Concentration, P. aeruginosa ATCC 27853
In short: as §1

[11] = system: A. baumannii ATCC 19606; settings: Acinetobacter baumannii, ATCC19606; MHB; read-out: Minimum Inhibitory Concentration, A. baumannii ATCC 19606
In short: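 CLSI microdilution; CAMHB; inoculum 2-8×10^5 CFU/mL from 3-5 h 37° C culture; 2-fold compound series; 16-20 h, 37° C; MIC = lowest well without visible growth.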

[12] = system: K. pneumoniae UMM producing SHV-5 and KPC-2; settings: Klebsiella pneumoniae, read-out: Minimum Inhibitory Concentration, K. pneumoniae UMM
In short: as §1

Structure (SMILES)	MIC [1] [µg/mL]	MIC [2] [µg/mL]	MIC [3] [µg/mL]	MIC [4] [µg/mL]	MIC [5] [µg/mL]	MIC [6] [µg/mL]	MIC [7] [µg/mL]	MIC [8] [µg/mL]	MIC [9] [µg/mL]	MIC [10] [µg/mL]	MIC [11] [µg/mL]	MIC [12] [µg/mL]
O=C(O)c1c(F)ccc2c1OB(O)[C@@H](NC(=O)C(NC(=O)N1CCN(CCF)C(=O)C1=O)c1c(F)cc(O)cc1F)C2 (stereo partly drawn) [Example 129, (3R)-3-(2-(2,6-difluoro-4-hydroxyphenyl)-2-(4-(2-fluoroethyl)-2,3-dioxopiperazine-1-carboxamido)acetamido)-7-fluoro-2-hydroxy-3,4-dihydro-2H-benzo[e][1,2]oxaborinine-8-carboxylic acid]	2 to 4 (≈ 3.35 to 6.71 µM)	32 to 64 (≈ 53.7 to 107 µM)	8 to 16 (≈ 13.4 to 26.8 µM)	0.5 to 1 (≈ 0.839 to 1.68 µM)	32 to 64 (≈ 53.7 to 107 µM)	32 to 64 (≈ 53.7 to 107 µM)	0.5 to 1 (≈ 0.839 to 1.68 µM)	32 to 64 (≈ 53.7 to 107 µM)	32 to 64 (≈ 53.7 to 107 µM)	> 128	> 128	32 to 64 (≈ 53.7 to 107 µM)
CCN1CCN(C(=O)NC(C(=O)N[C@H]2Cc3ccc(F)c(C(=O)O)c3OB2O)c2c(F)cc(O)cc2F)C(=O)C1=O (stereo partly drawn) [Example 130, (3R)-3-(2-(2,6-difluoro-4-hydroxyphenyl)-2-(4-ethyl-2,3-dioxopiperazine-1-carboxamido)acetamido)-7-fluoro-2-hydroxy-3,4-dihydro-2H-benzo[e][1,2]oxaborinine-8-carboxylic acid]	2 to 4 (≈ 3.46 to 6.92 µM)	32 to 64 (≈ 55.3 to 111 µM)	8 to 16 (≈ 13.8 to 27.7 µM)	< 0.25	32 to 64 (≈ 55.3 to 111 µM)	32 to 64 (≈ 55.3 to 111 µM)	< 0.25	32 to 64 (≈ 55.3 to 111 µM)	32 to 64 (≈ 55.3 to 111 µM)	> 128	> 128	8 to 16 (≈ 13.8 to 27.7 µM)
CCN1CCN(C(=O)NC(C(=O)N[C@H]2Cc3cccc(C(=O)O)c3OB2O)c2cc(F)c(C(=O)O)cc2F)C(=O)C1=O (stereo partly drawn) [Example 137, (3R)-3-(2-(4-carboxy-2,5-difluorophenyl)-2-(4-ethyl-2,3-dioxopiperazine-1-carboxamido)acetamido)-2-hydroxy-3,4-dihydro-2H-benzo[e][1,2]oxaborinine-8-carboxylic acid]	8 to 16 (≈ 13.6 to 27.2 µM)	32 to 64 (≈ 54.4 to 109 µM)	8 to 16 (≈ 13.6 to 27.2 µM)	0.5 to 1 (≈ 0.85 to 1.7 µM)	32 to 64 (≈ 54.4 to 109 µM)	> 128	< 0.25	8 to 16 (≈ 13.6 to 27.2 µM)	> 128	> 128	> 128	32 to 64 (≈ 54.4 to 109 µM)
CCN1CCN(C(=O)NC(C(=O)N[C@H]2Cc3cccc(C(=O)O)c3OB2O)c2cc(Cl)c(C(=O)O)cc2F)C(=O)C1=O (stereo partly drawn) [Example 138, (3R)-3-(2-(4-carboxy-5-chloro-2-fluorophenyl)-2-(4-ethyl-2,3-dioxopiperazine-1-carboxamido)acetamido)-2-hydroxy-3,4-dihydro-2H-benzo[e][1,2]oxaborinine-8-carboxylic acid]	2 to 4 (≈ 3.31 to 6.61 µM)	32 to 64 (≈ 52.9 to 106 µM)	8 to 16 (≈ 13.2 to 26.5 µM)	0.5 to 1 (≈ 0.827 to 1.65 µM)	32 to 64 (≈ 52.9 to 106 µM)	> 128	< 0.25	32 to 64 (≈ 52.9 to 106 µM)	> 128	> 128	> 128	32 to 64 (≈ 52.9 to 106 µM)
CCN1CCN(C(=O)NC(C(=O)N[C@H]2Cc3cccc(C(=O)O)c3OB2O)c2cc(F)c(C(=O)O)c(F)c2)C(=O)C1=O (stereo partly drawn) [Example 141, (3R)-3-(2-(4-carboxy-3,5-difluorophenyl)-2-(4-ethyl-2,3-dioxopiperazine-1-carboxamido)acetamido)-2-hydroxy-3,4-dihydro-2H-benzo[e][1,2]oxaborinine-8-carboxylic acid]	2 to 4 (≈ 3.4 to 6.8 µM)	32 to 64 (≈ 54.4 to 109 µM)	2 to 4 (≈ 3.4 to 6.8 µM)	< 0.25	32 to 64 (≈ 54.4 to 109 µM)	> 128	< 0.25	32 to 64 (≈ 54.4 to 109 µM)	> 128	> 128	> 128	32 to 64 (≈ 54.4 to 109 µM)
NCCN1CCN(C(=O)NC(C(=O)N[C@H]2Cc3cccc(C(=O)O)c3OB2O)c2ccc(C(=O)O)cc2O)C(=O)C1=O (stereo partly drawn) [Example 142, (3R)-3-(2-(4-(2-aminoethyl)-2,3-dioxopiperazine-1-carboxamido)-2-(4-carboxy-2-hydroxyphenyl)acetamido)-2-hydroxy-3,4-dihydro-2H-benzo[e][1,2]oxaborinine-8-carboxylic acid]	8 to 16 (≈ 13.7 to 27.4 µM)	> 128	32 to 64 (≈ 54.9 to 110 µM)	2 to 4 (≈ 3.43 to 6.86 µM)	32 to 64 (≈ 54.9 to 110 µM)	> 128	2 to 4 (≈ 3.43 to 6.86 µM)	> 128	> 128	> 128	> 128	32 to 64 (≈ 54.9 to 110 µM)
CCN1CCN(C(=O)NC(C(=O)N[C@H]2Cc3cccc(C(=O)O)c3OB2O)c2ccc(C(=O)O)cc2F)C(=O)C1=O (stereo partly drawn) [Example 145, (3R)-3-(2-(4-carboxy-2-fluorophenyl)-2-(4-ethyl-2,3-dioxopiperazine-1-carboxamido)acetamido)-2-hydroxy-3,4-dihydro-2H-benzo[e][1,2]oxaborinine-8-carboxylic acid]	2 to 4 (≈ 3.51 to 7.01 µM)	32 to 64 (≈ 56.1 to 112 µM)	8 to 16 (≈ 14 to 28.1 µM)	< 0.25	32 to 64 (≈ 56.1 to 112 µM)	> 128	< 0.25	8 to 16 (≈ 14 to 28.1 µM)	> 128	> 128	> 128	32 to 64 (≈ 56.1 to 112 µM)
CCN1CCN(C(=O)NC(C(=O)N[C@H]2Cc3cccc(C(=O)O)c3OB2O)c2c(Cl)cc(C(=O)O)cc2Cl)C(=O)C1=O (stereo partly drawn) [Example 150, (3R)-3-(2-(4-carboxy-2,6-dichlorophenyl)-2-(4-ethyl-2,3-dioxopiperazine-1-carboxamido)acetamido)-2-hydroxy-3,4-dihydro-2H-benzo[e][1,2]oxaborinine-8-carboxylic acid]	2 to 4 (≈ 3.22 to 6.44 µM)	> 128	32 to 64 (≈ 51.5 to 103 µM)	0.5 to 1 (≈ 0.805 to 1.61 µM)	> 128	> 128	< 0.25	> 128	> 128	> 128	> 128	> 128
NCCN1CCN(C(=O)NC(C(=O)N[C@H]2Cc3cccc(C(=O)O)c3OB2O)c2ccc(C(=O)O)c(Cl)c2)C(=O)C1=O (stereo partly drawn) [Example 153, (3R)-3-(2-(4-(2-aminoethyl)-2,3-dioxopiperazine-1-carboxamido)-2-(4-carboxy-3-chlorophenyl)acetamido)-2-hydroxy-3,4-dihydro-2H-benzo[e][1,2]oxaborinine-8-carboxylic acid]	2 to 4 (≈ 3.32 to 6.65 µM)	32 to 64 (≈ 53.2 to 106 µM)	8 to 16 (≈ 13.3 to 26.6 µM)	0.5 to 1 (≈ 0.831 to 1.66 µM)	32 to 64 (≈ 53.2 to 106 µM)	> 128	0.5 to 1 (≈ 0.831 to 1.66 µM)	8 to 16 (≈ 13.3 to 26.6 µM)	> 128	32 to 64 (≈ 53.2 to 106 µM)	> 128	32 to 64 (≈ 53.2 to 106 µM)
